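Cells were grown in 96-well plates and exposed to each compound for 48 hours at five concentrations; endpoints were interpolated linearly between bracketing concentrations, or set to the highest concentration if not reached. Here, GI50 denotes the concentration required for 50% inhibition of growth.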 Activity calls are given as the source filed them. Rule as the data show it: active = GI50 up to about 1.1 µM and inactive = higher.
Key:
Assay in all cases: inhibition of tumour cell growth, NCI panel, 48 h
[1] = system: HCC 2998
[2] = system: IGROV-1
[3] = system: HCT-15
[4] = system: Malme-3M
[5] = system: RPMI-8226
[6] = system: HCT-116
[7] = system: SK-MEL-28
[8] = system: MOLT-4
[9] = system: SF-295
[10] = system: SK-MEL-2
[11] = system: EKVX
[12] = system: SF-539
[13] = system: TK-10
[14] = system: ACHN
[15] = system: NCI-H460
[16] = system: RXF 393
[17] = system: UACC-62
[18] = system: NCI-H23
[19] = system: OVCAR-4
[20] = system: HOP-92

Row | Structure (SMILES) | GI50 [1] | GI50 [2] | GI50 [3] [µM] | GI50 [4] | GI50 [5] | GI50 [6] | GI50 [7] | GI50 [8] | GI50 [9] | GI50 [10] | GI50 [11] | GI50 [12] | GI50 [13] | GI50 [14] | GI50 [15] | GI50 [16] | GI50 [17] | GI50 [18] | GI50 [19] | GI50 [20]
1 | C/C(=C1\C(=O)C(c2ccccc2)N(c2ccccc2)C1=O)c1ccc(Cl)cc1 (stereo not given) | 36.6 µM (inactive) | 18.7 µM (inactive) | 19.1 | 19.7 µM (inactive) | 15.4 µM (inactive) | 16.4 µM (inactive) | 16.3 µM (inactive) | 31.6 µM (inactive) | 20 µM (inactive) | 20.1 µM (inactive) | 30.8 µM (inactive) | 21.3 µM (inactive) | 22 µM (inactive) | 19.3 µM (inactive) | 29.6 µM (inactive) | 24 µM (inactive) | 16.3 µM (inactive) | 17.1 µM (inactive) | 21.5 µM (inactive) | 3.17 µM (inactive)
2 | CC1(C)OCC(C2OC3OC(C)(C)OC3C2c2ccccc2)O1 (stereo not given) | > 100 µM (inactive) | 41.1 µM (inactive) | 24.2 | 42.2 µM (inactive) | 48.8 µM (inactive) | 36.4 µM (inactive) | 41.5 µM (inactive) | 22.4 µM (inactive) | > 100 µM (inactive) | 22.1 µM (inactive) | 49 µM (inactive) | 37.5 µM (inactive) | 32.1 µM (inactive) | 51.9 µM (inactive) | 39.8 µM (inactive) | 48.3 µM (inactive) | 27 µM (inactive) | 22.2 µM (inactive) | 41.4 µM (inactive) | 17.6 µM (inactive)
3 | COc1cccc2c1C(=O)c1c(O)c3c(c(O)c1C2=O)C[C@@](O)(C(C)=O)CC3S(=O)(=O)O (stereo not given in full) | > 100 µM (inactive) | > 100 µM (inactive) | > 100 | > 100 µM (inactive) | > 100 µM (inactive) | > 100 µM (inactive) | > 100 µM (inactive) | > 100 µM (inactive) | > 100 µM (inactive) | > 100 µM (inactive) | > 100 µM (inactive) | > 100 µM (inactive) | > 100 µM (inactive) | > 100 µM (inactive) | > 100 µM (inactive) | > 100 µM (inactive) | > 100 µM (inactive) | > 100 µM (inactive) | > 100 µM (inactive) | > 100 µM (inactive)
4 | NC1=NN(c2ccccc2)C(=O)C1C(=O)C(=O)Nc1ccc(Cl)cc1 (stereo not given) | > 100 µM (inactive) | > 100 µM (inactive) | > 100 | > 100 µM (inactive) | > 100 µM (inactive) | > 100 µM (inactive) | > 100 µM (inactive) | > 100 µM (inactive) | > 100 µM (inactive) | > 100 µM (inactive) | > 100 µM (inactive) | > 100 µM (inactive) | > 100 µM (inactive) | > 100 µM (inactive) | > 100 µM (inactive) | > 100 µM (inactive) | > 100 µM (inactive) | > 100 µM (inactive) | > 100 µM (inactive) | > 100 µM (inactive)
5 | CCN1CCN(c2nc3ccccc3nc2C(=O)c2ccc(OC)c(OC)c2)CC1 | 2.3 µM (inactive) | 16.6 µM (inactive) | 13.7 | 16.4 µM (inactive) | 10.1 µM (inactive) | 5.31 µM (inactive) | 13.5 µM (inactive) | 5.16 µM (inactive) | 11.9 µM (inactive) | 47.8 µM (inactive) | 19 µM (inactive) | 1.73 µM (inactive) | 22.4 µM (inactive) | 9.91 µM (inactive) | 6.81 µM (inactive) | 12.2 µM (inactive) | > 100 µM (inactive) | 24.3 µM (inactive) | 10 µM (inactive) | 7.48 µM (inactive)
6 | CO/C=C(/C(=O)OC)[C@@H]1C[C@@H]1c1ccc2ccccc2c1 | 20.4 µM (inactive) | 20.5 µM (inactive) | 18.8 | 20.2 µM (inactive) | 20.3 µM (inactive) | 18.1 µM (inactive) | 23.4 µM (inactive) | 16.4 µM (inactive) | 37.2 µM (inactive) | 15.2 µM (inactive) | 19.2 µM (inactive) | 19.5 µM (inactive) | 37.5 µM (inactive) | 25.9 µM (inactive) | 27.2 µM (inactive) | 44.1 µM (inactive) | 32.5 µM (inactive) | 28.2 µM (inactive) | 16.9 µM (inactive) | 19.8 µM (inactive)
7 | CN(NC(=O)c1ccc(Cl)cc1)C1=NCCCCN1 | > 100 µM (inactive) | > 100 µM (inactive) | > 100 | > 100 µM (inactive) | > 100 µM (inactive) | > 100 µM (inactive) | > 100 µM (inactive) | > 100 µM (inactive) | > 100 µM (inactive) | > 100 µM (inactive) | > 100 µM (inactive) | > 100 µM (inactive) | > 100 µM (inactive) | > 100 µM (inactive) | > 100 µM (inactive) | > 100 µM (inactive) | > 100 µM (inactive) | > 100 µM (inactive) | > 100 µM (inactive) | > 100 µM (inactive)
8 | NC(Cc1cccc([N+](=O)[O-])c1)C(=O)O (stereo not given) | > 100 µM (inactive) | > 100 µM (inactive) | > 100 | > 100 µM (inactive) | > 100 µM (inactive) | > 100 µM (inactive) | > 100 µM (inactive) | > 100 µM (inactive) | > 100 µM (inactive) | > 100 µM (inactive) | > 100 µM (inactive) | > 100 µM (inactive) | > 100 µM (inactive) | > 100 µM (inactive) | > 100 µM (inactive) | > 100 µM (inactive) | > 100 µM (inactive) | > 100 µM (inactive) | > 100 µM (inactive) | 61.5 µM (inactive)
9 | O=c1[nH]nc(Cc2ccccc2)n1/N=C/c1ccc([N+](=O)[O-])cc1 | > 100 µM (inactive) | > 100 µM (inactive) | > 100 | > 100 µM (inactive) | > 10 µM (inactive) | > 100 µM (inactive) | > 100 µM (inactive) | > 100 µM (inactive) | > 100 µM (inactive) | 49 µM (inactive) | > 100 µM (inactive) | > 100 µM (inactive) | > 100 µM (inactive) | > 100 µM (inactive) | > 100 µM (inactive) | > 100 µM (inactive) | > 100 µM (inactive) | > 100 µM (inactive) | > 100 µM (inactive) | > 100 µM (inactive)
10 | COC1C(O)C(C)OC(O[C@@H]2C[C@H]3CC[C@@H]4[C@H](CC[C@]5(C)[C@@H](C6=CC(=O)OC6)CC[C@]45O)[C@@]3(C)[C@H](O)C2)C1O (stereo not given in full) | 0.719 µM (active) | 0.145 µM (active) | 0.0826 | < 0.0396 µM (active) | 0.0512 µM (active) | < 0.0225 µM (active) | 0.216 µM (active) | < 0.0162 µM (active) | < 0.0371 µM (active) | 0.114 µM (active) | < 0.0474 µM (active) | < 0.01 µM (active) | 0.0361 µM (active) | < 0.0212 µM (active) | 0.0347 µM (active) | < 0.0161 µM (active) | 0.142 µM (active) | 0.0262 µM (active) | 0.057 µM (active) | 0.106 µM (active)
11 | CC1C(c2ccc(N(C)C)cc2)c2cc3c(cc2OC1N1CCCC1)OCO3 (stereo not given) | 34.6 µM (inactive) | > 65.8 µM (inactive) | 36.9 | 40.7 µM (inactive) | 36.1 µM (inactive) | 36.4 µM (inactive) | > 72.8 µM (inactive) | 48.8 µM (inactive) | 32.1 µM (inactive) | 30.5 µM (inactive) | 64.6 µM (inactive) | 21.7 µM (inactive) | 98.6 µM (inactive) | > 72.9 µM (inactive) | 34.5 µM (inactive) | 22.9 µM (inactive) | 46.1 µM (inactive) | 58.3 µM (inactive) | > 100 µM (inactive) | 6.25 µM (inactive)
12 | CC(C)c1cccc(C(C)C)c1NC(=O)C(=O)C1CCC2=C(Sc3ccccc3N2)C1=O (stereo not given) | > 100 µM (inactive) | > 100 µM (inactive) | 61.7 | > 100 µM (inactive) | 44.4 µM (inactive) | 48.9 µM (inactive) | > 100 µM (inactive) | 43.7 µM (inactive) | 80.5 µM (inactive) | > 100 µM (inactive) | > 100 µM (inactive) | 31.3 µM (inactive) | > 100 µM (inactive) | > 100 µM (inactive) | > 100 µM (inactive) | > 100 µM (inactive) | > 100 µM (inactive) | 31.6 µM (inactive) | 95.9 µM (inactive) | > 100 µM (inactive)
13 | CCC1(O)C[C@H]2CN(CCCc3c([nH]c4ccccc34)[C@@](C(=O)OC)(c3cc4c(cc3OC)N(C)C3[C@](O)(C(=O)OC)[C@H](OC(C)=O)[C@]5(CC)C=CCN6CC[C@]43[C@H]65)C2)C1 (stereo not given in full) | 1.75 µM (inactive) | 2.88 µM (inactive) | 2.99 | 0.977 µM (active) | 0.908 µM (active) | 0.855 µM (active) | 3.56 µM (inactive) | 0.586 µM (active) | 0.275 µM (active) | 0.63 µM (active) | 1.63 µM (inactive) | 0.991 µM (active) | > 10 µM (inactive) | > 2.92 µM (inactive) | 0.557 µM (active) | 0.834 µM (active) | 0.525 µM (active) | 0.743 µM (active) | 0.353 µM (active) | > 10 µM (inactive)
14 | ClC1CCC2OOC1O2 (stereo not given) | > 100 µM (inactive) | > 100 µM (inactive) | 87.3 | > 100 µM (inactive) | > 100 µM (inactive) | 61.1 µM (inactive) | > 100 µM (inactive) | > 100 µM (inactive) | > 100 µM (inactive) | > 100 µM (inactive) | > 100 µM (inactive) | > 100 µM (inactive) | > 100 µM (inactive) | > 100 µM (inactive) | > 100 µM (inactive) | > 100 µM (inactive) | 89.1 µM (inactive) | > 100 µM (inactive) | > 100 µM (inactive) | > 100 µM (inactive)
